Data reported in patent US20190125648A1, “COMPOSITION FOR PREVENTING, IMPROVING OR TREATING HAIR LOSS COMPRISING DEOXYCHOLIC ACID AS ACTIVE INGREDIENT” (priority 2016, published 2019).

Test system: B6CBAF1/j hybrid mice
Assay: Testosterone-induced hair loss in mice: hair loss area and follicle count
Assay type: in vivo
Conditions: after two weeks; testosterone 10 mg/ml + each test substance 1 mg/ml; compared to testosterone alone (group T); FIG. 3
Description: B6CBAF1/j hybrid mice (5 weeks old, male, Charles River Japan) were acclimated for one week in a breeding room and then used from the time of 6 weeks after birth.
For use in an injection agent, a solvent was prepared to contain 15% of ethanol, 5% of NMP, and 80% of PBS. Solutions were prepared by mixing the solvent with the following solutes: group T (testosterone 10 mg/ml), group TD (testosterone 10 mg/ml+deoxycholic acid 1 mg/ml), group TR (testosterone 10 mg/ml+resveratrol 1 mg/ml), group TF (testosterone 10 mg/ml+finasteride 1 mg/ml), and group TRF (testosterone 10 mg/ml+resveratrol 1 mg/ml+finasteride 1 mg/ml).
The animals were anesthetized with isoflurane through inhalation and injected subcutaneously at the neck with 100 μl of a testosterone solution (10 mg/ml) every day. From a couple of weeks, they were photographed along with a scale bar to quantify a hair loss area. After six weeks of testing, the mice were sacrificed by means of a CO2 incubator. Test areas of the skin were taken, fixed with formalin, and prepared into paraffin blocks. The blocks were horizontally sectioned and dyed with H&E (Hematoxylin & Eosin) to count follicles per mm^2.

SMILES: Oc1ccc(C=Cc2cc(O)cc(O)c2)cc1 [resveratrol]
- increment in hair loss area: greatly reduced
